According to patent US20130089510A1, “OTIC COMPOSITIONS FOR THE TREATMENT OF INFECTIONS OF THE INTERNAL AND EXTERNAL EAR IN MAMMALS” (Foresight Biotherapeutics, Inc., priority 2008, published 2013):

Columns and labels:
[1] = Reactivity/compatibility of PVP-I with other active ingredients
external ear = settings: in vivo; cited from earlier work

consumption of the agent on reaction with PVP-I ([1]; mixed with PVP-I) | Molecule | available iodine in the PVP-I complex ([1]; with Ketorolac, depending on the ratio between Ketorolac and PVP-I) | concentration known to be safe for use in the external ear (and inner ear through a ruptured tympanic membrane) (external ear)
completely consumed | O=C(c1ccccc1)c1ccc2n1CCC2C(=O)O (stereo not drawn) [Ketorolac] | – | –
– | 1-Vinyl-2-pyrrolidinone polymers, iodine complex [PVP-I] | reduced significantly | up to 10.0 % (w/w, aqueous)
